Structures can show the parent of a compound that is named as a salt.
Key:
db/db mice = conditions: cited from earlier work
[1] = molecular target: T1, SHIP2 immunoprecipitated from the lysates of podocytes (Homo sapiens, UniProt O15357); experiment: Activity of SHIP2 immunoprecipitated from podocytes; assay type: cell-based; conditions: 20–24 h
T1 construct: endogenous in cells; host or cells: immortalized human podocytes
T1 sequence (O15357 1-1258): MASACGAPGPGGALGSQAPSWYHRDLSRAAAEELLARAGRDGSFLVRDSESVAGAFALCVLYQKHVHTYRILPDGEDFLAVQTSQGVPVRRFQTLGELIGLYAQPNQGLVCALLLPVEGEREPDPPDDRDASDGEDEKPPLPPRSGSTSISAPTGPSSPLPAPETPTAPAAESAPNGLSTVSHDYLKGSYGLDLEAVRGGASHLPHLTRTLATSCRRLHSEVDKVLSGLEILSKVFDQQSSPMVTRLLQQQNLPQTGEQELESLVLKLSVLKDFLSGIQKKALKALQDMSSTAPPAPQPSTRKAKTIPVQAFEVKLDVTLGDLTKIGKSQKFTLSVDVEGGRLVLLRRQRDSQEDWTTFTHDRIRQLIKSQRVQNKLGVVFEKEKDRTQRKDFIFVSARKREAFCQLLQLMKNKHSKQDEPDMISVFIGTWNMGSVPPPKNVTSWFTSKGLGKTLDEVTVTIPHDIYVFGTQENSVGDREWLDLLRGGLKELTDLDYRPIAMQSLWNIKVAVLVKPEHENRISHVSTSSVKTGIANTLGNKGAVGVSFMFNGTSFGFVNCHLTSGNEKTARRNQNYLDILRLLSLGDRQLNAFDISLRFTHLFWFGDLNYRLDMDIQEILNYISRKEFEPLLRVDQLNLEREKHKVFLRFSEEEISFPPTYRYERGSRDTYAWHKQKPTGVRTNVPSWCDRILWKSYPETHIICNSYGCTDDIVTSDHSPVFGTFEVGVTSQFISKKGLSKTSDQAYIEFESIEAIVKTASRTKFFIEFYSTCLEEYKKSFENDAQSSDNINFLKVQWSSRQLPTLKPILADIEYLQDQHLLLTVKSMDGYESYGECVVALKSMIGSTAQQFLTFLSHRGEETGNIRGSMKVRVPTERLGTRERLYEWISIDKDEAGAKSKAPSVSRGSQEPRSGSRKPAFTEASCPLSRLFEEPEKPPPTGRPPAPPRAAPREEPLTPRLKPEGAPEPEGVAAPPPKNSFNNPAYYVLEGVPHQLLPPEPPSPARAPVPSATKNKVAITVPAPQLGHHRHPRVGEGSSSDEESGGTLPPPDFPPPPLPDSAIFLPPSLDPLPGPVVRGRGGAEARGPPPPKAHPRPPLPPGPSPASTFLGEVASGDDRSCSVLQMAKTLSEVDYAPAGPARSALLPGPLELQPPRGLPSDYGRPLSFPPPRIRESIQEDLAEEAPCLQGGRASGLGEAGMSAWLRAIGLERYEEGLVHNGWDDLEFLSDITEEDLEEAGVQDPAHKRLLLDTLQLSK
Method: (§1) Immortalized human podocytes were maintained as previously described ([10]). […] Podocytes were lysed as previously described ([21]).
Recombinant His-tagged human SHIP2 and SHIP1 phosphatase domains were produced as previously described ([17]). […] Immunocomplexes were bound to protein G-Sepharose beads at +4°C for 2 h and washed 3 times with malachite green phosphate assay buffer {10 mM 4-(2-hydroxyethyl)-1-piperazineethanesulfonic acid (HEPES), pH 7.25, 6 mM MgCl2, 0.1% 3-[(3-cholamidopropyl)dimethylammonio]-1-propanesulfonate (CHAPS), 250 mM sucrose, and 0.25 mM EDTA}.
The catalytic activities of the recombinant SHIP2 and SHIP1 phosphatase domains were determined by malachite green phosphate assay at the High Throughput Biomedicine Unit (University of Helsinki) using D-myo-PI(3,4,5)P3 (Echelon Biosciences, Salt Lake City, UT, USA). Different volumes, resulting in desired final concentrations of inhibitors, were transferred to the wells of 384-well plates by using the Echo550 acoustic dispenser (Labcyte, San Jose, CA, USA). Recombinant protein (100 ng) in reaction buffer {10 mM HEPES, pH 7.25, 6 mM MgCl2, 0.1% CHAPS, 250 mM sucrose, and 0.25 mM EDTA} was placed in each well (7.5 µl), and the plates were preincubated at room temperature for 15 min. The phosphatase reaction was started by adding PI(3,4,5)P3 diluted in the reaction buffer (7.5 µl) to each well to reach a final concentration of 100 µM PI(3,4,5)P3 in the 15 µl reaction volume. […] Absorbance was measured at 620 nm using a Pherastar FS plate reader (BMG Labtech, Offenburg, Germany). […] The catalytic activity of SHIP2 immunoprecipitated from cell and tissue lysates was determined as in Saurus et al. ([22]), omitting SHIP2 inhibitors in lysis buffer, immunoprecipitation reaction, wash, and assay buffers. […]
Hydrogen bond is shown in green. […] The catalytic activity of SHIP2 was measured by manual malachite green phosphate assay.

L6-GLUT4 myotubes = experiment: Glucose uptake assay in L6-GLUT4 myotubes; assay type: cell-based, rat; conditions: metformin 2 mM
Method: as §1
(§2) Glucose uptake assay and On-Cell Western were performed essentially as in Tolvanen et al. ([19]). […] Cells were transferred on ice; incubated with anti-HA IgG in serum-free medium for 15 min, followed by additional incubation in fresh cell differentiation medium for 15 min at +37°C; and fixed with 2% paraformaldehyde for 20 min. Cells were incubated with IRDye 800 donkey anti-mouse IgG and nuclear marker DRAQ-5 (Thermo Fisher Scientific). Detection and quantitation were performed with the Odyssey Infrared Imager (Li-Cor Biosciences, Lincoln, NE, USA).
(§3) L6-GLUT4 myotubes overexpressing SHIP2 were treated and glucose uptake performed as described in C. […] Time point 15 min indicates the amount of HA detected on the cells after 15 min internalization.

[2] = system: Immortalized human podocytes; experiment: Glucose uptake assay in podocytes; assay type: cell-based
Method: as §1, §2, §3

[3] = 20–24 h, insulin 100 nM, 15 min

| Structure (SMILES) | PCK1 expression in db/db mice (db/db mice) | blood glucose in db/db mice (db/db mice; short-term treatment) | insulin sensitivity in db/db mice (db/db mice; short-term treatment) | reduction of SHIP2 activity in podocytes ([1]; 20 µM) | increase in insulin-stimulated glucose uptake, SHIP2 knockdown (L6-GLUT4 myotubes; SHIP2 shRNA, 20–24 h, insulin 100 nM, 15 min) | increase in glucose uptake in L6-GLUT4 myotubes (L6-GLUT4 myotubes; control shRNA, 20–24 h, insulin 100 nM, 15 min) | increase in glucose uptake in empty vector-transfected myotubes (L6-GLUT4 myotubes; [3]) | increase in insulin-stimulated glucose uptake, SHIP2 overexpression (L6-GLUT4 myotubes; [3]) | increase in glucose uptake in L6-GLUT4 cells (L6-GLUT4 myotubes; 20–24 h, serum-starved) | glucose uptake in L6-GLUT4 cells, metformin together with insulin (L6-GLUT4 myotubes; 20–24 h plus insulin 100 nM, 15 min) | increase in glucose uptake in podocytes [2] | increase in glucose uptake in podocytes, metformin together with insulin [2] | reduction of SHIP2 activity in podocytes ([1]; 1 mM) |
| --- | --- | --- | --- | --- | --- | --- | --- | --- | --- | --- | --- | --- | --- |
| C[C@H](NC(=O)c1sccc1OCc1ccc(Cl)cc1)c1ccccc1 [AS1949490] | reduce | reduced | improved | 20–30% | – | – | – | – | – | – | – | – | – |
| CN(C)C(=N)N=C(N)N [Metformin, 1,1-Dimethylbiguanide hydrochloride] | – | – | – | 20–30% | 109% | 148% | 155% | 76% | 218% | did not have an additive effect | 52% | 80% | 14% |

From publication PMC6338644 (The FASEB Journal, 2018)
